For 1 compound, cough and involuntary cough results are on record in patent US20090068276A1, “Pharmaceutical compositions” (Vectura Group plc, priority 2007, published 2009).

Molecules are shown by their SMILES.

This data set in a line: Involuntary cough on administration of the active agent. Type of data set: in vivo.

Regarding `CN(C)CCCN1c2ccccc2CCc2ccc(Cl)cc21` [clomipramine], the cough entry (administered via an alternative route to pulmonary inhalation) is listed as “the cough is not induced”. Further, the involuntary cough entry (administered via pulmonary inhalation) is “induces an involuntary cough”.
